{"source": "patent US10723764B2", "about": "“Anti-microbial peptides and methods of use thereof” (priority 2011, dated 2020)", "key": {"[1]": {"test_system": "methicillin-resistant Staphylococcus aureus USA300 LAC", "details": "for MIC (μM) SA: S. aureus USA300 LAC, Table 10", "protocol": "This was done by modifying the standard microdilution antimicrobial assays (Wang, G. (2008) J. Biol. Chem., 283:32637-32643). Specifically, the bacterial wells with a high peptide concentration (e.g. 100 μM) are duplicated (e.g., two for antimicrobial assays and two for protease stability assays). As an illustration, chymotrypsin was applied to the duplicated wells at a peptide:protease molar ratio of 25:1."}, "[2]": {"test_system": "A. baumannii B2367-12", "format": "cell-based, Acinetobacter baumanii", "description": "(§1) The antibacterial activities of the peptides were determined using the standard broth microdilution method (Mishra et al. (2012) J. Am. Chem. Soc., 134:12426-12429; Wang et al. (2005) Biol. Chem., 280:5803-5811). Briefly, the bacterial culture was treated with a series of peptide solutions, each with two-fold dilution. After overnight incubation at 37° C., the microplate was read on a ChroMate® 4300 Microplate Reader at 630 nm (GMI, Ramsey, Minn.)."}, "[3]": {"test_system": "human erythrocytes", "details": "for HL50 (μM), peptide concentration that causes 50% lysis of human erythrocytes: Table 10", "description": "(§2) Peptide hemolysis was assayed using an established protocol (Malmsten et al. (2011) PLoS One 6:e16400). In brief, fresh blood, obtained from the UNMC Blood Bank, was washed three times with PBS buffer and made into a 5% solution. To 90 μL of this solution, 10 μL of a peptide solution was added and incubated at 37° C. for one hour. After centrifugation at 13,000 rpm, aliquots of the supernatant were transferred to a fresh 96 well microplate. The absorbance of the solutions was measured at 545 nm to detect the amount of hemoglobin released. The percent lysis was calculated by assuming 100% release when treated with 2% Triton X-100 and no lysis (0%) when treated with PBS buffer. HL50 was the peptide concentration that caused 50% lysis of human erythrocytes. The cell selectivity (CS) indexes were calculated as the ratio of HL50 to the MIC of the peptide against S. aureus USA300.\n(§3) The hemolytic effects of the six peptides were also compared on human red blood cells (hRBC) using an established protocol (Malmsten et al. (2011) PLoS One 6:e16400). […] A high TI indicates good cell selectivity.\n(§4) Peptide hemolysis was assayed using an established protocol (Menousek et al. (2012) Int. J. Antimicrob. Agents 39:402-406; Malmsten et al. (2011) PLoS One 6:e16400). Briefly, blood cells were washed three times with phosphate-buffered saline (PBS) and were diluted to a 5% solution. Following peptide treatment, incubation at 37° C. for 1 hour and centrifugation at 13,000 rpm, aliquots of the supernatant were transferred to a fresh 96-well microplate. To assess peptide cytotoxicity, the amount of hemoglobin released was measured at 545 nm. Percent lysis was calculated by assuming 100% release when human blood cells were treated with 2% Triton X-100 and 0% release when they were incubated with PBS buffer."}, "[4]": {"test_system": "E. faecium ATCC51559", "format": "cell-based, Enterococcus faecium", "details": "ATCC51559", "description": "as §1"}, "[5]": {"test_system": "Pseudomonas aeruginosa PAO1", "format": "cell-based", "description": "The bacterial strains used in the study are Bacillus subtilis 168, methicillin-resistant Staphylococcus aureus USA300 LAC (Gram-positive), Escherichia coli K12, and Pseudomonas aeruginosa PAO1 (Gram negative). The antibacterial activities of the peptides were determined using the standard broth microdilution method (Wang et al. (2005) J. Biol. Chem., 280:5803-5811). In brief, the bacterial culture (90 μL) was treated with a series of peptide solutions (10 μL), each with two-fold dilution. After overnight incubation at 37° C., the microplate was read on a ChroMate® 4300 Microplate Reader at 630 nm (GMI, Ramsey, Minn.).\nFor the initial screen, antimicrobial activities of these peptides against S. aureus and E. coli were evaluated using the standard broth microdilution protocol (Wang, G. (2008) J. Biol. Chem., 283:32637-43). […] Subsequently, the in vitro activity of these six peptides was evaluated against Bacillus subtilis and Pseudomonas aeruginosa (Table 6). […] While maculatin 1.3 is active against two Gram-positive but not two Gram-negative bacterial strains, DASamP1 is species-specific since it active only against S. aureus. The finding that ascaphin-8, […], and piscidin 1 are wide-spectrum AMPs agrees with the literature (Apponyi et al. (2004) Peptides 25:1035-1054; Conlon et al. (2004) Biochem. Biophys. Res. Commun., 320:170-175; Silphaduang et al. (2001) Nature 414:268-269; Souza et al. (2005) J. Immunol., 186:6585-6596). For lycotoxin I, it was previously found to active against Gram-negative E. coli and yeast (Yan et al. (1998) J. Biol. Chem., 273:2059-2066).\nas §1"}, "[6]": {"test_system": "E. cloacae B2366-12", "format": "cell-based", "description": "as §1"}, "[7]": {"test_system": "Escherichia coli K12", "details": "Table 8"}, "[8]": {"details": "human, hemolysis, at 160 μM, human red blood cells", "description": "as §2, §3, §4"}, "[9]": {"test_system": "ESKAPE pathogens", "format": "cell-based", "details": "E. coli, A. baumannii, and E. cloacae", "description": "as §1\nA rational design was conducted on the basis of the 3D structure of GF-17d3. […] The noncoherent packing of the GF-17d3 side chains caused a hydrophobic defect in the structure (FIGS. 8C and 8D, arrow), leading to reduced hydrophobicity. Accordingly, it was hypothesized that the antimicrobial activity of this peptide 17F2 (sequence GX1KRLVQRLKDX2LRNLV (SEQ ID NO: 58), Table 9) could be enhanced by filling in the hydrophobic cavity (FIG. 8D, arrow) with a larger hydrophobic side chain. The antimicrobial activities of these peptide analogues were evaluated using the standard microdilution assays (Mishra et al. (2012) J. Am. Chem. Soc., 134:12426-12429), and the minimal inhibitory concentrations (MIC) against a panel of the ESKAPE pathogens are provided in Table 10. […] To compare the two sites, these two substitutions at positions X1 and X2 were swapped to obtain 17Naph-mF. […] In addition, biphenylalanines were incorporated at position X1 alone or at both X1 and X2 of the 17F2 template. […] The killing abilities of these peptides are essentially proportional to their MIC values as well as retention times (a measure of hydrophobicity) on a reverse-phase HPLC column (Mishra et al. (2012) J. Am. Chem. Soc., 134:12426-12429)."}}, "note": "Like-named read-outs stand apart in the source and are kept apart here. Where a SMILES comes first, the peptide text is derived from it. [ ]: non-standard residue; d: D form. Phe(4-CF3) = N[C@@H](Cc1ccc(C(F)(F)F)cc1)C(=O)O; 2Nal = N[C@@H](Cc1ccc2ccccc2c1)C(=O)O"}
{"smiles": "CC(C)C[C@H](NC(=O)[C@H](CC(N)=O)NC(=O)[C@H](CCCNC(=N)N)NC(=O)[C@@H](CC(C)C)NC(=O)[C@H](Cc1ccc2ccccc2c1)NC(=O)[C@H](CC(=O)O)NC(=O)[C@H](CCCCN)NC(=O)[C@@H](CC(C)C)NC(=O)[C@H](CCCNC(=N)N)NC(=O)[C@H](CCC(N)=O)NC(=O)[C@@H](NC(=O)[C@@H](CC(C)C)NC(=O)[C@H](CCCNC(=N)N)NC(=O)[C@H](CCCCN)NC(=O)[C@H](Cc1ccc(C(F)(F)F)cc1)NC(=O)CN)C(C)C)C(=O)N[C@H](C(N)=O)C(C)C", "note": "[17mF-Naph, GX1KRLVQRLKDX2LRNLV] (H-G[Phe(4-CF3)]KR[dL]VQR[dL]KD[2Nal][dL]RNLV-NH2)", "values": [{"measurement": "MIC (μM) SA", "setting": "[1]", "value": 6.2, "unit": "µM"}, {"measurement": "MIC (μM) AB", "setting": "[2]", "value": 3.1, "unit": "µM"}, {"measurement": "HL50 (μM), peptide concentration that causes 50% lysis of human erythrocytes", "setting": "[3]", "value": 500, "unit": "µM"}, {"measurement": "MIC (μM) EF", "setting": "[4]", "value": 3.1, "unit": "µM"}, {"measurement": "MIC (μM) PA", "setting": "[5]", "value": "6.2 to 12.5", "unit": "µM"}, {"measurement": "MIC (μM) EC", "setting": "[6]; B2366-12", "value": 6.2, "unit": "µM"}]}
{"smiles": "CC(C)C[C@H](NC(=O)[C@H](CC(N)=O)NC(=O)[C@H](CCCNC(=N)N)NC(=O)[C@@H](CC(C)C)NC(=O)[C@H](Cc1ccccc1)NC(=O)[C@H](CC(=O)O)NC(=O)[C@H](CCCCN)NC(=O)[C@@H](CC(C)C)NC(=O)[C@H](CCCNC(=N)N)NC(=O)[C@H](CCC(N)=O)NC(=O)[C@@H](NC(=O)[C@@H](CC(C)C)NC(=O)[C@H](CCCNC(=N)N)NC(=O)[C@H](CCCCN)NC(=O)[C@H](Cc1ccccc1)NC(=O)CN)C(C)C)C(=O)N[C@H](C(N)=O)C(C)C", "note": "[A128A, GX1KRLVQRLKDX2LRNLV-amide] (H-GFKR[dL]VQR[dL]KDF[dL]RNLV-NH2)", "values": [{"measurement": "S. aureus USA 300 MIC", "setting": "[1]; Table 8", "value": "> 160", "unit": "µM"}, {"measurement": "E. coli K12 MIC", "setting": "[7]", "value": 10, "unit": "µM"}, {"measurement": "MIC (μM) AB", "setting": "[2]", "value": "6.2 to 12.5", "unit": "µM"}, {"measurement": "hemolysis", "setting": "[3]; human, 160 µM", "value": "<3", "unit": "%"}, {"measurement": "hemolysis at 160 µM", "setting": "[8]", "value": "3 to 5", "unit": "%"}, {"measurement": "MIC (μM) EC", "setting": "[6]; B2366-12", "value": 25, "unit": "µM"}, {"measurement": "MIC against E. coli, A. baumannii, and E. cloacae", "setting": "[9]", "value": "6.2 to 25", "unit": "µM"}]}
{"smiles": "CC(C)C[C@H](NC(=O)[C@H](CC(N)=O)NC(=O)[C@H](CCCNC(=N)N)NC(=O)[C@@H](CC(C)C)NC(=O)[C@H](Cc1ccc2ccccc2c1)NC(=O)[C@H](CC(=O)O)NC(=O)[C@H](CCCCN)NC(=O)[C@@H](CC(C)C)NC(=O)[C@H](CCCNC(=N)N)NC(=O)[C@H](CCC(N)=O)NC(=O)[C@@H](NC(=O)[C@@H](CC(C)C)NC(=O)[C@H](CCCNC(=N)N)NC(=O)[C@H](CCCCN)NC(=O)[C@H](Cc1ccccc1)NC(=O)CN)C(C)C)C(=O)N[C@H](C(N)=O)C(C)C", "note": "[17F-Naph, GX1KRLVQRLKDX2LRNLV] (H-GFKR[dL]VQR[dL]KD[2Nal][dL]RNLV-NH2)", "values": [{"measurement": "MIC (μM) SA", "setting": "[1]", "value": 25, "unit": "µM"}, {"measurement": "MIC (μM) AB", "setting": "[2]", "value": 3.1, "unit": "µM"}, {"measurement": "HL50 (μM), peptide concentration that causes 50% lysis of human erythrocytes", "setting": "[3]", "value": ">900", "unit": "µM"}, {"measurement": "MIC (μM) EF", "setting": "[4]", "value": 3.1, "unit": "µM"}, {"measurement": "MIC (μM) PA", "setting": "[5]", "value": 12.5, "unit": "µM"}, {"measurement": "MIC (μM) EC", "setting": "[6]; E. cloacae B2366-12", "value": 12.5, "unit": "µM"}]}
